# Patent US8367695B2, “Condensed tetrahydroquinoline derivative and use thereof for medical purposes” (Mitsubishi Tanabe Pharma Corporation, priority 2007, dated 2013)
# Biological target: T1, human recombinant mineralocorticoid receptor (MR) (Homo sapiens, UniProt P08235)
# T1 construct: made in house; host or cells: insect cell Sf9 (baculovirus)
# T1 sequence (P08235 1-984): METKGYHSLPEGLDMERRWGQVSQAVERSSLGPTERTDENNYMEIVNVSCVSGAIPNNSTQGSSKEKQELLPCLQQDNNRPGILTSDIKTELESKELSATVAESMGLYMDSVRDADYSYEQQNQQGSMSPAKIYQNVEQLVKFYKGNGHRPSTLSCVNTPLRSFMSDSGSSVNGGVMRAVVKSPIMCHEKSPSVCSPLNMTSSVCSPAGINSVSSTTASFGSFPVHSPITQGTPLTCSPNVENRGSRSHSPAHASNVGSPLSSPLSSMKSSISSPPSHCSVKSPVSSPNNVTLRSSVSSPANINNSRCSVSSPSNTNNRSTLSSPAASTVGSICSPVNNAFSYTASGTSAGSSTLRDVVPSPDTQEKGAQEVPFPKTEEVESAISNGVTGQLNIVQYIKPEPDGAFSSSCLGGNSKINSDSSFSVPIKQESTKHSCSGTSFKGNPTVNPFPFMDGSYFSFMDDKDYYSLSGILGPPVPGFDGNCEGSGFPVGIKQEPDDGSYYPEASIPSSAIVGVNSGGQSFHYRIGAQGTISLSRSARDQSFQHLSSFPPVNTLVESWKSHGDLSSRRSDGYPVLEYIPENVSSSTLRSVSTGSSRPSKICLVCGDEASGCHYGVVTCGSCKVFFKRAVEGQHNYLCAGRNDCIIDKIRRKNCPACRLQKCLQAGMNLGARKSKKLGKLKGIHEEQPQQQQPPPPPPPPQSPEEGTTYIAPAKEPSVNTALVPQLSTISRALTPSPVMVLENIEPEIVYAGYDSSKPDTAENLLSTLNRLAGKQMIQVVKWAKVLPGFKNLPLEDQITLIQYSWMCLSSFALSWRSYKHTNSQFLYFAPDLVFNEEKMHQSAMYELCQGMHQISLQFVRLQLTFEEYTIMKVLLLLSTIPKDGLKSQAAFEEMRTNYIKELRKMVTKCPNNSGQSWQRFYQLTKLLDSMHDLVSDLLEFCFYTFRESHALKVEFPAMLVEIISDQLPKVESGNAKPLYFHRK
# Assay: Radioactive ligand binding test, MR cytosol, [3H]-Ald
# Details: not given
# Description: Radioactive Ligand Binding Test Using Cytosols of Human Glucocorticoids Receptor, Progesterone Receptor and Mineralocorticoid Receptor
# The procedures described in Neuroimmunomodulation (1994, 1, p. 66-73) and Invest. Opthalmol. Vis. Sci. (1996, 37, p. 805-813) were modified and used. In brief, cytosol preparations of human recombinant glucocorticoids receptor (GR) and human recombinant progesterone receptor-B (PRB) were purchased from Invitrogen (Carlsbad, Calif.), and a cytosol preparation of human recombinant mineralocorticoid receptor (MR) was prepared by our company (Yokohama, JP). MR cDNA was cloned into a baculovirus expression vector and expressed in insect cell Sf9. The procedures described in J. Biol. Chem. (1991, 266, p. 18072-18081), Proc. Natl. Acad. Sci. USA (1991, 88, p. 10681-10685) and Bac-to-Bac (registered trade mark) Baculovirus Expression Systems technical manual (Invitrogen) were partly modified and used as the procedures for MR gene cloning up to preparation of recombinant receptor cytosol. [^3H]-Dexamethasone (Dex, specific activity 91.0 Ci/mmol) was purchased from GE Healthcare (Buckinghamshire, UK), and [^3H]-progesterone (Prog, specific activity 103 Ci/mmol) and [3H]-aldosterone (Ald, specific activity 87.9 Ci/mmol) were each purchased from PerkinElmer (Boston, Mass.). Polypropylene round-bottomed 96 well plate was obtained from ABgene (Epsom, UK). Dimethyl Sulfoxide (DMSO) and hydrochloric acid were obtained from Kanto Chemical (TOKYO, JP). Trizma Base (Tris), Bovine Serum Albumin (BSA) and Sodium tungstate dihydrate were obtained from Sigma Chemicals (St. Louis, Mo.). Dithiothreitol (DTT) and Dextran 70 were obtained from GE Healthcare (Buckinghamshire, UK). Glycerol was obtained from Junsei Chemical (TOKYO, JP). Norit® “SX-II” was obtained from Wako Pure Chemical Industries, Ltd. (Osaka, JP). MeltiLex™, A, Printed Filtermat A and Sample Bag were obtained from PerkinElmer (Boston, Mass.).
# As a buffer for GR binding assay, 25 mM Tris-HCl (4° C., pH 7.4)/1 mM EDTA·2Na/1 mM DTT/0.1% BSA was prepared and used. As buffers for PRB and MR binding assay, 10 mM Tris-HCl (4° C., pH 7.4)/1 mM DTT/0.1% BSA/10% glycerol and 20 mM Tris-HCl (4° C., pH 7.4)/1 mM EDTA·2Na/10% glycerol/20 mM sodium tungstate were respectively prepared and used. As dextran-coated charcoal (DCC) for B/F separation, 0.75% Dextran 70/0.75% Norit® SX-II/10 mM Tris-HCl (4° C., pH 7.4) was prepared and used.
# Compound storage solutions (5-20 mM) were prepared using DMSO. The storage solutions were diluted with DMSO to 0.1 mM (for GR) and 0.3 mM (for PRB and MR), and further diluted 20-fold with distilled water to give solutions. Then, the preparations were diluted to each concentration with 5% DMSO solution. 1% DMSO was present at the time of the binding assay.
# In the case of MR binding assay, [^3H]-Ald (about 4 nM), MR cytosol (about 1 mg/mL concentration of total protein), a test compound and a binding buffer were mixed in a total volume of 50 μL, and the mixture was stood at 4° C. for 30 min or longer. A specific binding was defined to be the difference in the [^3H]-Ald binding between the presence and the absence of 1 μM unlabeled Ald.
# After the reaction, 50 μL of DCC was added to each well and blended. Thereafter, the mixture was stood at 4° C. for 10 min. The plate was applied to high-speed cooling centrifuge under the conditions of 4° C., 2000 rpm, 5 min to perform B/F separation. A given amount of the supernatant was recovered, which was spotted on Filtermat A of 96 well format (PerkinElmer) and rapidly dried at a high temperature. Then, solid scintillator MeltiLex A (PerkinElmer) was melted on Filtermat A. The mixture was placed in a Sample Bag (PerkinElmer), and the level of radioactivity was measured by plate reader 1450 Micro Beta TRILUX (PerkinElmer).
# Measurement of Inhibition Constant (Ki)
row,SMILES,Ki [nM]
1,"Cc1noc(C)c1-c1cc2c(c3c1CCC3)NC(C)(C)C(=O)C2(C)C [Example 2, 6-(3,5-dimethylisoxazol-4-yl)-2,2,4,4-tetramethyl-2,3,4,7,8,9-hexahydro-1H-cyclopenta[h]quinolin-3-one]",> 1000
2,"CC1(C)Nc2c(cc(-c3ccnc4cc[nH]c34)c3c2CCC3)C(C)(C)C1=O [Example 13, 2,2,4,4-tetramethyl-6-(1H-pyrrolo[3,2-b]pyridin-7-yl)-2,3,4,7,8,9-hexahydro-1H-cyclopenta[h]quinolin-3-one]",> 1000
3,"CC1(C)Nc2c(cc(-c3cccc4nccn34)c3c2CCC3)C(C)(C)C1=O [Example 14, 6-(imidazo[1,2-a]pyridin-5-yl)-2,2,4,4-tetramethyl-2,3,4,7,8,9-hexahydro-1H-cyclopenta[h]quinolin-3-one]",> 1000
4,"CC1(C)Nc2c(cc(-c3cccc4nncn34)c3c2CCC3)C(C)(C)C1=O [Example 17, 2,2,4,4-tetramethyl-6-([1,2,4]triazolo[4,3-a]pyridin-5-yl)-2,3,4,7,8,9-hexahydro-1H-cyclopenta[h]quinolin-3-one]",> 1000
5,"CC1(C)Nc2c(cc(-c3cccc4ncccc34)c3c2CCC3)C(C)(C)C1=O [Example 20, 2,2,4,4-tetramethyl-6-(quinolin-5-yl)-2,3,4,7,8,9-hexahydro-1H-cyclopenta[h]quinolin-3-one]",> 1000
6,"CC1(C)Nc2c(cc(-c3ccnc4ncccc34)c3c2CCC3)C(C)(C)C1=O [Example 21, 2,2,4,4-tetramethyl-6-([1,8]naphthyridin-4-yl)-2,3,4,7,8,9-hexahydro-1H-cyclopenta[h]quinolin-3-one]",> 1000
7,"C=C1C(C)(C)Nc2c(cc(-c3c(C)ncn3C)c3c2CCC3)C1(C)C [Example 29, 6-(3,5-dimethyl-3H-imidazol-4-yl)-2,2,4,4-tetramethyl-3-methylene-2,3,4,7,8,9-hexahydro-1H-cyclopenta[h]quinoline]",> 1000
8,"C=CCC1(C)C(=O)C(C)(C)Nc2c1cc(-c1ccc(O)cc1C)c1c2CCC1 (centres unmarked) [Example 50, 4-allyl-6-(4-hydroxy-2-methylphenyl)-2,2,4-trimethyl-2,3,4,7,8,9-hexahydro-1H-cyclopenta[h]quinolin-3-one]",> 1000
9,"C=CCC1(C)C(=O)C(C)(C)Nc2c1cc(-c1c(C)noc1C)c1c2CCC1 (centres unmarked) [Example 51, 4-allyl-6-(3,5-dimethylisoxazol-4-yl)-2,2,4-trimethyl-2,3,4,7,8,9-hexahydro-1H-cyclopenta[h]quinolin-3-one]",> 1000
10,"C=CCC1(C)C(=O)C(C)(C)Nc2c1cc(-c1cccc3nccn13)c1c2CCC1 (centres unmarked) [Example 57, 4-allyl-6-(imidazo[1,2-a]pyridin-5-yl)-2,2,4-trimethyl-2,3,4,7,8,9-hexahydro-1H-cyclopenta[h]quinolin-3-one]",> 1000
11,"CC#CCC1(C)C(=O)C(C)(C)Nc2c1cc(-c1cccc3nccn13)c1c2CCC1 (centres unmarked) [Example 63, 4-(2-butynyl)-6-(imidazo[1,2-a]pyridin-5-yl)-2,2,4-trimethyl-2,3,4,7,8,9-hexahydro-1H-cyclopenta[h]quinolin-3-one]",> 1000
12,"Cc1noc(C)c1-c1cc2c(c3c1OCO3)NC(C)(C)C(=O)C2(C)C [Example 69, 4-(3,5-dimethylisoxazol-4-yl)-6,6,8,8-tetramethyl-6,7,8,9-tetrahydro-[1,3]dioxolo[4,5-h]quinolin-7-one]",> 1000
13,"CC1(C)Nc2c(cc(-c3cccc4nccn34)c3c2OCO3)C(C)(C)C1=O [Example 71, 4-(imidazo[1,2-a]pyridin-5-yl)-6,6,8,8-tetramethyl-6,7,8,9-tetrahydro-[1,3]dioxolo[4,5-h]quinolin-7-one]",> 1000
14,"CC1(C)Nc2c(cc(-c3cccc4ncccc34)c3c2OCO3)C(C)(C)C1=O [Example 72, 6,6,8,8-tetramethyl-4-(quinolin-5-yl)-6,7,8,9-tetrahydro-[1,3]dioxolo[4,5-h]quinolin-7-one]",> 1000
15,"C=CCC1(C)C(=O)C(C)(C)Nc2c1cc(-c1cccc3cc[nH]c13)c1c2OCO1 (centres unmarked) [Example 78, 6-allyl-4-(1H-indol-7-yl)-6,8,8-trimethyl-6,7,8,9-tetrahydro-[1,3]dioxolo[4,5-h]quinolin-7-one]",> 1000
16,"CC1(C)Nc2c(cc(-c3cccc4nccn34)c3c2OC(F)(F)O3)C(C)(C)C1=O [Example 82, 2,2-difluoro-4-(imidazo[1,2-a]pyridin-5-yl)-6,6,8,8-tetramethyl-6,7,8,9-tetrahydro-[1,3]dioxolo[4,5-h]quinolin-7-one]",> 1000

# Same assay, conditions: [3H]-Ald about 4 nM, MR cytosol (Sf9), 4° C.; Cheng-Prusoff, Kd about 2.0 nM; read-out: MR (Ki: nM)
row,SMILES,Ki [nM]
1,"CCC1(C)C(=O)C(C)(C)Nc2c1cc(-c1cccc3nccn13)c1c2CCC1 (centres unmarked) [Example 58, 4-ethyl-6-(imidazo[1,2-s]pyridin-5-yl)-2,2,4-trimethyl-2,3,4,7,8,9-hexahydro-1H-cyclopenta[h]quinolin-3-one]",> 1000
